# Data published in US20240293367A1, “METHODS OF TREATING DISORDERS WITH A […]” (Cybin IRL Limited, priority 2023, published 2024).
# Test system: participants with MDD
# Assay: MADRS total score, response, remission and relapse in MDD participants (Phase I/IIa study)
# Type: in vivo, human
# From the text: Cohorts 1, 4, 5, and 6 of the study was comprised of participants with MDD. Cohorts 2, 3, and the relative BA cohort of the study were comprised of normal healthy volunteers (NHV). […] MDD participants had been on a stable dose of antidepressant medication for at least one month prior to screening with an inadequate response to that antidepressant medication as judged by the Investigator, and continued to receive their prescribed antidepressant throughout the course of the study.
# Cohorts 4 and 5. For Cohorts 4 and 5, 12 participants each (24 participants total) were randomized in a 3:1 ratio to receive 12 mg of psilocin-d10 or matched placebo in a single dosing session on Day 1. Following a 21-day interval, all participants received a dose of 12 mg psilocin-d10 on Day 22 (second dose for participants originally randomized to psilocin-d10, first dose for participants randomized to placebo), and were followed to Day 42.
# Cohort 6. For Cohort 6, 12 participants were randomized in a 3:1 ratio to receive 16 mg of psilocin-d10 or matched placebo in a single dosing session on Day 1. Following a 21-day interval, all participants received a dose of 16 mg psilocin-d10 on Day 22 (second dose for participants originally randomized to psilocin-d10, first dose for participants randomized to placebo), and were followed to Day 42. Given the availability of data and considering that the secondary endpoint was a change in baseline to Day 21 in MADRS, efficacy data presented herein considers the data cut off of Day 21 postdose. One participant had to be withdrawn from the study due to pregnancy.
# The primary efficacy endpoint defined in the statistical analysis plan (SAP) is the change from baseline to Day 21 of the total Montgomery-Åsberg Depression Rating Scale (MADRS) score compared to placebo, therefore efficacy data presented herein considers the data cut off of Day 21 postdose. Mean total score and change from baseline on Montgomery-Åsberg Depression Rating Scale (MADRS) on days 1, 10, 17, 22, 31, 38, and 42 are presented as secondary efficacy endpoints.
# The secondary objective of the study was to evaluate the efficacy of psilocin-d10 in treating symptoms of MDD as measured by the change from baseline to Day 21 of the MADRS total score in the Intent-to-Treat population, with data analyzed according to the treatment group each participant was randomized to receive. Data from participants in Cohorts 4, 5, and 6 randomized to placebo was pooled for analysis purposes (N=9). Data from participants in Cohorts 4, 5, and 6 randomized to 12 mg or 16 mg psilocin-d10 (N=27) was also pooled for analysis.
# Data from the study was also analyzed according to dosage level of psilocin-d10. Data from participants in Cohorts 4, 5, and 6 randomized to placebo was pooled for analysis purposes (N=9). Data from participants in Cohorts 4 and 5 (treated with 12 mg psilocin-d10) was also pooled for analysis (N=18).
# The rates of remission, response, and relapse were also evaluated within the study. […] Additionally, 20.8% (5 out of 24) of participants in the psilocin-do group (12 mg and 16 mg combined) were in remission (remitters) (defined as a MADRS score of ≤10) compared to 0% for placebo at Day 21. The same 5 participants who were in remission were also classified as responders. None of the participants relapsed at Day 21 compared to baseline.
# The MADRS is a 10-item scale with ratings based on a clinical interview which moves from broadly phrased questions about symptoms to more detailed ones allowing a precise rating of severity. A rating scale from 0 to 6 is employed and the rater must decide whether the rating lies on defined scale steps (0, 2, 4, 6) or between them (1, 3, 5). The MADRS can be used for any time interval between ratings, be it weekly or otherwise, and the time interval should be recorded. […]
# [1] = Day 21, 12 mg single dose, Cohorts 4 and 5
# [2] = Day 21, 16 mg single dose, Cohort 6
# [3] = Day 21, single dose, 12 and 16 mg pooled
smiles,measurement,setting,value
"[2H]C([2H])([2H])N(C([2H])([2H])[2H])C([2H])([2H])C([2H])([2H])c1c[nH]c2cccc(O)c12 [psilocin-d10, 3-(2-(bis(methyl-d3)amino)ethyl-1,1,2,2-d4)-1H-indol-4-ol]",mean reduction in baseline MADRS,"10 days post first dose, 12 mg and 16 mg pooled",55%
same,reduction in baseline MADRS,10 days post second dose,66%
same,"MADRS change from baseline, LS Mean (Std Err) for Day 42","ANOVA [2], Placebo/active group (one dose Day 22)",−16.48 (3.50)
same,"MADRS change from baseline, LS Mean (Std Err) for Day 42","ANOVA [2], two doses, 12 and 16 mg pooled",−21.04 (2.24)
same,"MADRS change from baseline, LS Mean (Std Err) for Day 42","ANOVA [3], within Placebo/active group",−16.54 (2.89)
same,"MADRS change from baseline, LS Mean","ANOVA at Day 21, 12 mg",−16.70
same,"MADRS change from baseline, LS Mean","ANOVA at Day 21, 16 mg",−15.61
same,"MADRS change from baseline, LS Mean","ANOVA at Day 42 (by dosage level), Placebo/active group (one dose Day 22)",−16.48
same,"MADRS change from baseline, LS Mean","ANOVA at Day 42, two 12 mg doses",−19.83
same,"MADRS change from baseline, LS Mean","ANOVA at Day 42, two 16 mg doses",−23.41
same,"MADRS change from baseline, LS Mean (Std Err) for Day 21","ANOVA, 12 and 16 mg pooled",−16.33 (1.30)
same,MADRS mean total score,Day 10 after single dose (baseline 32.2),17.7
same,participants in remission,"Day 21, 12 mg (3 out of 15)",20%
same,participants with response,"Day 21, 12 mg (8 out of 15)",53.3%
same,participants in remission (MADRS ≤10),"Day 21, 12 mg and 16 mg combined (5 out of 24)",20.8%
same,participants with response (≥50% reduction from baseline MADRS),"Day 21, 12 mg and 16 mg combined (12 out of 24)",50%
same,"MADRS total score, Change from Baseline, Mean",[1],−17.0
same,"MADRS total score, Change from Baseline, Median",[1],−17.0
same,"MADRS total score, Observed, Mean",[1],15.9
same,"MADRS total score, Observed, Median",[1],14.0
same,participants in remission,"Day 21, 16 mg (2 out of 9)",22.2%
same,participants with response,"Day 21, 16 mg (4 out of 9)",44.4%
same,"MADRS total score, Change from Baseline, Mean",[2],−14.9
same,"MADRS total score, Change from Baseline, Median",[2],−17.0
same,"MADRS total score, Observed, Mean",[2],16.6
same,"MADRS total score, Observed, Median",[2],18.0
same,Relapse - No,"Day 21, Cohort 4, 12 mg",7 (100.0) n (%)
same,Relapse - Yes,"Day 21, Cohort 4, 12 mg",0 (0.0) n (%)
same,Remission (MADRS ≤10) - Yes,"Day 21, Cohort 4, 12 mg",2 (28.6) n (%)
same,Remission - No,"Day 21, Cohort 4, 12 mg",5 (71.4) n (%)
same,Response (≥50% reduction from baseline MADRS) - Yes,"Day 21, Cohort 4, 12 mg",4 (57.1) n (%)
same,Response - No,"Day 21, Cohort 4, 12 mg",3 (42.9) n (%)
same,Relapse - No,"Day 21, Cohort 5, 12 mg",8 (100.0) n (%)
same,Relapse - Yes,"Day 21, Cohort 5, 12 mg",0 (0.0) n (%)
same,Remission (MADRS ≤10) - Yes,"Day 21, Cohort 5, 12 mg",1 (12.5) n (%)
same,Remission - No,"Day 21, Cohort 5, 12 mg",7 (87.5) n (%)
same,Response (≥50% reduction from baseline MADRS) - Yes,"Day 21, Cohort 5, 12 mg",4 (50.0) n (%)
same,Response - No,"Day 21, Cohort 5, 12 mg",4 (50.0) n (%)
same,Relapse - No,"Day 21, Cohort 6, 16 mg",9 (100.0) n (%)
same,Relapse - Yes,"Day 21, Cohort 6, 16 mg",0 (0.0) n (%)
same,Remission (MADRS ≤10) - Yes,"Day 21, Cohort 6, 16 mg",2 (22.2) n (%)
same,Remission - No,"Day 21, Cohort 6, 16 mg",7 (77.8) n (%)
same,Response (≥50% reduction from baseline MADRS) - Yes,"Day 21, Cohort 6, 16 mg",4 (44.4) n (%)
same,Response - No,"Day 21, Cohort 6, 16 mg",5 (55.6) n (%)
same,Remission (MADRS ≤10) - Yes,"Day 21, Cohorts 4, 5 and 6, pooled 12 mg and 16 mg",5 (20.8) n (%)
same,Relapse - No,"Day 21, Cohorts 4 and 5, 12 mg",15 (100.0) n (%)
same,Relapse - Yes,"Day 21, Cohorts 4 and 5, 12 mg",0 (0.0) n (%)
same,Remission (MADRS ≤10) - Yes,"Day 21, Cohorts 4 and 5, 12 mg",3 (20.0) n (%)
same,Remission - No,"Day 21, Cohorts 4 and 5, 12 mg",12 (80.0) n (%)
same,Response (≥50% reduction from baseline MADRS) - Yes,"Day 21, Cohorts 4 and 5, 12 mg",8 (53.3) n (%)
same,Response - No,"Day 21, Cohorts 4 and 5, 12 mg",7 (46.7) n (%)
same,Relapse - No,"Day 21, pooled 12 mg and 16 mg",24 (100.0) n (%)
same,Relapse - Yes,"Day 21, pooled 12 mg and 16 mg",0 (0.0) n (%)
same,Remission - No,"Day 21, pooled 12 mg and 16 mg",19 (79.2) n (%)
same,Response (≥50% reduction from baseline MADRS) - Yes,"Day 21, pooled 12 mg and 16 mg",12 (50.0) n (%)
same,Response - No,"Day 21, pooled 12 mg and 16 mg",12 (50.0) n (%)
same,"MADRS total score, Change from Baseline, Mean",[3],−16.2
same,"MADRS total score, Change from Baseline, Median",[3],−17.0
same,"MADRS total score, Observed, Mean",[3],16.1
same,"MADRS total score, Observed, Median",[3],16.5
same,"MADRS, Difference in LS Means, 12 mg compared to Cohort 6 (16 mg)","Day 21, 95% CI (−12.2, 10.1), P 0.8421",−1.09
same,"MADRS, Difference in LS Means, 12 mg compared to placebo","Day 21, 95% CI (−20.5, −7.7), P 0.0001",−14.11
same,"MADRS, Difference in LS Means, 16 mg compared to placebo","Day 21, 95% CI (−22.3, −3.7), P 0.0080",−12.99
same,mean decrease from baseline MADRS,Day 21 after single dose,50%
same,MADRS mean total score,Day 31 (10 days post second dose),6.7
same,Relapse - No,"Day 42, Cohort 4, two 12 mg doses",7 (100.0) n (%)
